Results taken from paper PMC7385619, “A triple action CDK4/6-PI3K-BET inhibitor with augmented cancer cell cytotoxicity” (Cell Discovery, 2020).
“And” between values parts separate entries of the source, which are not always exact repeats. Equal values may be shown once. Read-outs that look alike come from different tables or passages of the source.

Legend:
Experiment in all cases: KINOMEscan assay (Eurofins DiscoverX)
Format in all cases: binding
kinome (kinase panel) [1] = target: T1, kinome (kinase panel) (Homo sapiens, UniProt O00329); details: PIK3CD; 1000 nM; read-out: Percent Control
T1 construct: purchased Eurofins DiscoverX

kinome (kinase panel) [2] = target: T2, kinome (kinase panel) (Homo sapiens, UniProt O15075); details: DCAMKL1 (Entrez DCLK1); 1000 nM; read-out: Percent Control
T2 construct: purchased Eurofins DiscoverX

kinome (kinase panel) [3] = target: T3, kinome (kinase panel) (Homo sapiens, UniProt O15146); details: MUSK; 1000 nM; read-out: Percent Control
T3 construct: purchased Eurofins DiscoverX

kinome (kinase panel) [4] = target: T4, kinome (kinase panel) (Homo sapiens, UniProt O43293); details: DAPK3; 1000 nM; read-out: Percent Control
T4 construct: purchased Eurofins DiscoverX

kinome (kinase panel) [5] = target: T5, kinome (kinase panel) (Homo sapiens, UniProt O60285); details: ARK5 (Entrez NUAK1); 1000 nM; read-out: Percent Control
T5 construct: purchased Eurofins DiscoverX

kinome (kinase panel) [6] = target: T6, kinome (kinase panel) (Homo sapiens, UniProt O95819); details: MAP4K4; 1000 nM; read-out: Percent Control
T6 construct: purchased Eurofins DiscoverX

kinome (kinase panel) [7] = target: T7, kinome (kinase panel) (Homo sapiens, UniProt P00519, F317L)
T7 construct: purchased Eurofins DiscoverX

kinome (kinase panel) [8] = target: T8, kinome (kinase panel) (Homo sapiens, UniProt P00533, G719C); details: […]; 1000 nM; read-out: Percent Control
T8 construct: purchased Eurofins DiscoverX

kinome (kinase panel) [9] = target: T9, kinome (kinase panel) (Homo sapiens, UniProt P06213); details: INSR; 1000 nM; read-out: Percent Control
T9 construct: purchased Eurofins DiscoverX

kinome (kinase panel) [10] = target: T10, kinome (kinase panel) (Homo sapiens, UniProt P11802); details: 1000 nM, read-out: Percent Control
T10 construct: purchased Eurofins DiscoverX

kinome (kinase panel) [11] = target: T11, kinome (kinase panel) (Homo sapiens, UniProt P24941); details: CDK2; 1000 nM; read-out: Percent Control
T11 construct: purchased Eurofins DiscoverX

kinome (kinase panel) [12] = target: T12, kinome (kinase panel) (Homo sapiens, UniProt P28482); details: ERK2 (Entrez MAPK1); 1000 nM; read-out: Percent Control
T12 construct: purchased Eurofins DiscoverX

kinome (kinase panel) [13] = target: T13, kinome (kinase panel) (Homo sapiens, UniProt P36507); details: MEK2 (Entrez MAP2K2); 1000 nM; read-out: Percent Control
T13 construct: purchased Eurofins DiscoverX

kinome (kinase panel) [14] = target: T14, kinome (kinase panel) (Homo sapiens, UniProt P42336, H1047Y); details: read-out: Percent Control
T14 construct: purchased Eurofins DiscoverX

kinome (kinase panel) [15] = target: T15, kinome (kinase panel) (Homo sapiens, UniProt P42680); details: TEC; 1000 nM; read-out: Percent Control
T15 construct: purchased Eurofins DiscoverX

kinome (kinase panel) [16] = target: T16, kinome (kinase panel) (Homo sapiens, UniProt P50613); details: CDK7; 1000 nM; read-out: Percent Control
T16 construct: purchased Eurofins DiscoverX

kinome (kinase panel) [17] = target: T17, kinome (kinase panel) (Homo sapiens, UniProt P51451); details: BLK; 1000 nM; read-out: Percent Control
T17 construct: purchased Eurofins DiscoverX

kinome (kinase panel) [18] = target: T18, kinome (kinase panel) (Homo sapiens, UniProt P78362); details: SRPK2; 1000 nM; read-out: Percent Control
T18 construct: purchased Eurofins DiscoverX

kinome (kinase panel) [19] = target: T19, kinome (kinase panel) (Homo sapiens, UniProt Q13188); details: MST2 (Entrez STK3); 1000 nM; read-out: Percent Control
T19 construct: purchased Eurofins DiscoverX

kinome (kinase panel) [20] = target: T20, kinome (kinase panel) (Homo sapiens, UniProt Q13470); details: TNK1; 1000 nM; read-out: Percent Control
T20 construct: purchased Eurofins DiscoverX

kinome (kinase panel) [21] = target: T21, kinome (kinase panel) (Homo sapiens, UniProt Q13557); details: CAMK2D; 1000 nM; read-out: Percent Control
T21 construct: purchased Eurofins DiscoverX

kinome (kinase panel) [22] = target: T22, kinome (kinase panel) (Homo sapiens, UniProt Q13705); details: ACVR2B; 1000 nM; read-out: Percent Control
T22 construct: purchased Eurofins DiscoverX

kinome (kinase panel) [23] = target: T23, kinome (kinase panel) (Homo sapiens, UniProt Q16584); details: MLK3 (Entrez MAP3K11); 1000 nM; read-out: Percent Control
T23 construct: purchased Eurofins DiscoverX

kinome (kinase panel) [24] = target: T24, kinome (kinase panel) (Homo sapiens, UniProt Q16620); details: TRKB (NTRK2); 1000 nM; read-out: Percent Control
T24 construct: purchased Eurofins DiscoverX

kinome (kinase panel) [25] = target: T25, kinome (kinase panel) (Homo sapiens, UniProt Q16832); details: DDR2; 1000 nM; read-out: Percent Control
T25 construct: purchased Eurofins DiscoverX

kinome (kinase panel) [26] = target: T26, kinome (kinase panel) (Homo sapiens, UniProt Q86Y07); details: VRK2; 1000 nM; read-out: Percent Control
T26 construct: purchased Eurofins DiscoverX

kinome (kinase panel) [27] = target: T27, kinome (kinase panel) (Homo sapiens, UniProt Q8IVW4); details: CDKL3; 1000 nM; read-out: Percent Control
T27 construct: purchased Eurofins DiscoverX

kinome (kinase panel) [28] = target: T28, kinome (kinase panel) (Homo sapiens, UniProt Q9H1R3); details: MYLK2; 1000 nM; read-out: Percent Control
T28 construct: purchased Eurofins DiscoverX

kinome (kinase panel) [29] = target: T29, kinome (kinase panel) (Homo sapiens, UniProt Q9H3Y6); details: SRMS; 1000 nM; read-out: Percent Control
T29 construct: purchased Eurofins DiscoverX

kinome (kinase panel) [30] = target: T30, kinome (kinase panel) (Homo sapiens, UniProt Q9HBH9); details: MKNK2; 1000 nM; read-out: Percent Control
T30 construct: purchased Eurofins DiscoverX

kinome (kinase panel) [31] = target: T31, kinome (kinase panel) (Homo sapiens, UniProt Q9NY57); details: YANK2 (STK32B); 1000 nM; read-out: Percent Control
T31 construct: purchased Eurofins DiscoverX

kinome (kinase panel) [32] = target: T32, kinome (kinase panel) (Homo sapiens, UniProt Q9Y2H9); details: MAST1; 1000 nM; read-out: Percent Control
T32 construct: purchased Eurofins DiscoverX

T10 sequence (P11802 whole entry): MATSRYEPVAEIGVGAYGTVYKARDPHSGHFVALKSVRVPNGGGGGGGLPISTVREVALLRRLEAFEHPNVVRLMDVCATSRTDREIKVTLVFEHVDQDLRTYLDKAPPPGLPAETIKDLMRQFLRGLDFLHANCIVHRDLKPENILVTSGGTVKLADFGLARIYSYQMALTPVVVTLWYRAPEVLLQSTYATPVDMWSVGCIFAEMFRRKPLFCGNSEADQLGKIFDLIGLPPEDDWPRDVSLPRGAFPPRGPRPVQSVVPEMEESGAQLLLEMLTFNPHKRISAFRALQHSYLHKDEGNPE
T7 sequence (P00519 whole entry F317L): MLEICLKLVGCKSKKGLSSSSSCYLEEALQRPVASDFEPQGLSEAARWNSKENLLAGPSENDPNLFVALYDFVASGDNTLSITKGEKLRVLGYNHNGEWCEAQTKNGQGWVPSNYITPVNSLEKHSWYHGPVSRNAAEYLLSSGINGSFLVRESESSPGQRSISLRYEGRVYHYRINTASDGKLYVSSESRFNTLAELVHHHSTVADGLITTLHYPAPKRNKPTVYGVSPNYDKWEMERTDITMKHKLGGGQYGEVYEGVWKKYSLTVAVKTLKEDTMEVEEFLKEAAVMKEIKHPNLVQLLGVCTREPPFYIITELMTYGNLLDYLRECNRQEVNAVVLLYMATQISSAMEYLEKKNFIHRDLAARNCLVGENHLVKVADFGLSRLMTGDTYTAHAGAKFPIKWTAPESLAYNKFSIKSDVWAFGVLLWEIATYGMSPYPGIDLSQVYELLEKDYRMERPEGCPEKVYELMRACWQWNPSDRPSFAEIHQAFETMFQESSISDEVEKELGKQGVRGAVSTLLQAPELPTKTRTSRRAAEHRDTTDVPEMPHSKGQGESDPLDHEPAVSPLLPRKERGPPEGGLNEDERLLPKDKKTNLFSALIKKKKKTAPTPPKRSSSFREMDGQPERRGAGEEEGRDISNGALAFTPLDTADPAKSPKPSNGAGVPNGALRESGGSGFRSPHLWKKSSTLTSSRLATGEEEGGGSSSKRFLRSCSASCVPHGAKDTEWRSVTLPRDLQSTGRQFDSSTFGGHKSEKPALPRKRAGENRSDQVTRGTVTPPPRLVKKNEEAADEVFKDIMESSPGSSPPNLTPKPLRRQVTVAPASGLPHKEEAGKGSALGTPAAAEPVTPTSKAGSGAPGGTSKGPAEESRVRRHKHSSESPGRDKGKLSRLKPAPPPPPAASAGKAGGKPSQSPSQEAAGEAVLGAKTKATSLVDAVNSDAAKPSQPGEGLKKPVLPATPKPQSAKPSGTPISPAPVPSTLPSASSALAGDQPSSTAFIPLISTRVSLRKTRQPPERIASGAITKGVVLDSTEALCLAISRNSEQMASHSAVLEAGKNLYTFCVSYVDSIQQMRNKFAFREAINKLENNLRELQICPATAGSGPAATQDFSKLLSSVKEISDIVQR
T30 sequence (Q9HBH9 whole entry): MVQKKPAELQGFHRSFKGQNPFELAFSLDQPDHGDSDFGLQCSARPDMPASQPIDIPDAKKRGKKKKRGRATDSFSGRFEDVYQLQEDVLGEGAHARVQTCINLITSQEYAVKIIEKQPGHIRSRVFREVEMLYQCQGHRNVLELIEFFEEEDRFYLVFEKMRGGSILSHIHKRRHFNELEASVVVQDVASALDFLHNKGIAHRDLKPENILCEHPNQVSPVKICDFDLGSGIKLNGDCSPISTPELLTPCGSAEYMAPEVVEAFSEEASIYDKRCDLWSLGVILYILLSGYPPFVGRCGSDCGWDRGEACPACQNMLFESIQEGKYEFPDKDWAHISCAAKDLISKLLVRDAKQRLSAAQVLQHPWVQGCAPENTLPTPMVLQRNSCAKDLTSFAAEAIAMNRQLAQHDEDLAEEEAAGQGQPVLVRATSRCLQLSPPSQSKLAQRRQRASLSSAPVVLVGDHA
T8 sequence (P00533 25-1210 G719C): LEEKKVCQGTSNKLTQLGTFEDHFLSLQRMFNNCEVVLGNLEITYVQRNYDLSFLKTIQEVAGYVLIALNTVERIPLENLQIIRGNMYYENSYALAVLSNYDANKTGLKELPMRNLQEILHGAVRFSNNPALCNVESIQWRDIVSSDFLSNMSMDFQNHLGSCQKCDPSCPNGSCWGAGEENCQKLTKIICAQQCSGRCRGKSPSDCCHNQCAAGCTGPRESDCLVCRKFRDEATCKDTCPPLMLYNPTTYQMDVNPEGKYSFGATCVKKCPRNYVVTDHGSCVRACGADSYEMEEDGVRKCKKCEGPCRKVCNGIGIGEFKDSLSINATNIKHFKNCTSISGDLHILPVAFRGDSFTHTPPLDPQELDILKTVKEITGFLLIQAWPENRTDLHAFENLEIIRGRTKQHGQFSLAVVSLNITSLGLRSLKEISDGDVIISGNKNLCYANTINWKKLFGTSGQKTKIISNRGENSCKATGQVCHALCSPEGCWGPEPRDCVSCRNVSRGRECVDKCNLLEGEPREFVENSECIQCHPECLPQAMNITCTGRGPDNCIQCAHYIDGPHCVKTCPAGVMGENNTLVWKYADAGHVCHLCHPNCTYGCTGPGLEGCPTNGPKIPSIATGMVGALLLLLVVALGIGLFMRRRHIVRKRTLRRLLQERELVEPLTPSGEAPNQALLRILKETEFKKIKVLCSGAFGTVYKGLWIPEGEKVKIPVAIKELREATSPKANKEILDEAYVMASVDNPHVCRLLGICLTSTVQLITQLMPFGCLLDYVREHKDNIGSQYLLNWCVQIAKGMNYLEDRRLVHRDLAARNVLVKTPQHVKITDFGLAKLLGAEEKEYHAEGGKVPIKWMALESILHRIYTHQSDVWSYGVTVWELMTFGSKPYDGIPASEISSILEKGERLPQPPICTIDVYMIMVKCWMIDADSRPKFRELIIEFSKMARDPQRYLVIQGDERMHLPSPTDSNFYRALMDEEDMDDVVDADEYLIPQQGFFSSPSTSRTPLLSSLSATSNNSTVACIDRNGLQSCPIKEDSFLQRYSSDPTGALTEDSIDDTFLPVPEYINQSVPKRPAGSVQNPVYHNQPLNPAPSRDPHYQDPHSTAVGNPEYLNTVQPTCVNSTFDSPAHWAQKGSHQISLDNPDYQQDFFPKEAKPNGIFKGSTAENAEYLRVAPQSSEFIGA
T17 sequence (P51451 whole entry): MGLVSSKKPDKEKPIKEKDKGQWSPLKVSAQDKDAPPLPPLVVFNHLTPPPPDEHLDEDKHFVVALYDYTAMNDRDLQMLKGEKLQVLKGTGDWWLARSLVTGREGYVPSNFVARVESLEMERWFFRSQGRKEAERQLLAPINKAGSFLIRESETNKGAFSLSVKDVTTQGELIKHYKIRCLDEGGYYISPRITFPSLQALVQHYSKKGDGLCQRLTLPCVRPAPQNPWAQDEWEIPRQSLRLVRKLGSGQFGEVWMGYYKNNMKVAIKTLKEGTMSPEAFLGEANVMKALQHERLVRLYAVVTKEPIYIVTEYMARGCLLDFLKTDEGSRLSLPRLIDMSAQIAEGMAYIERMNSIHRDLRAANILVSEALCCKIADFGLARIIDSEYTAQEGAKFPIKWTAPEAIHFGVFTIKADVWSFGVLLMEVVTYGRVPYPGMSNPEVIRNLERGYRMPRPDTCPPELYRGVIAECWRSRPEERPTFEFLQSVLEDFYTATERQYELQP
T1 sequence (O00329 whole entry): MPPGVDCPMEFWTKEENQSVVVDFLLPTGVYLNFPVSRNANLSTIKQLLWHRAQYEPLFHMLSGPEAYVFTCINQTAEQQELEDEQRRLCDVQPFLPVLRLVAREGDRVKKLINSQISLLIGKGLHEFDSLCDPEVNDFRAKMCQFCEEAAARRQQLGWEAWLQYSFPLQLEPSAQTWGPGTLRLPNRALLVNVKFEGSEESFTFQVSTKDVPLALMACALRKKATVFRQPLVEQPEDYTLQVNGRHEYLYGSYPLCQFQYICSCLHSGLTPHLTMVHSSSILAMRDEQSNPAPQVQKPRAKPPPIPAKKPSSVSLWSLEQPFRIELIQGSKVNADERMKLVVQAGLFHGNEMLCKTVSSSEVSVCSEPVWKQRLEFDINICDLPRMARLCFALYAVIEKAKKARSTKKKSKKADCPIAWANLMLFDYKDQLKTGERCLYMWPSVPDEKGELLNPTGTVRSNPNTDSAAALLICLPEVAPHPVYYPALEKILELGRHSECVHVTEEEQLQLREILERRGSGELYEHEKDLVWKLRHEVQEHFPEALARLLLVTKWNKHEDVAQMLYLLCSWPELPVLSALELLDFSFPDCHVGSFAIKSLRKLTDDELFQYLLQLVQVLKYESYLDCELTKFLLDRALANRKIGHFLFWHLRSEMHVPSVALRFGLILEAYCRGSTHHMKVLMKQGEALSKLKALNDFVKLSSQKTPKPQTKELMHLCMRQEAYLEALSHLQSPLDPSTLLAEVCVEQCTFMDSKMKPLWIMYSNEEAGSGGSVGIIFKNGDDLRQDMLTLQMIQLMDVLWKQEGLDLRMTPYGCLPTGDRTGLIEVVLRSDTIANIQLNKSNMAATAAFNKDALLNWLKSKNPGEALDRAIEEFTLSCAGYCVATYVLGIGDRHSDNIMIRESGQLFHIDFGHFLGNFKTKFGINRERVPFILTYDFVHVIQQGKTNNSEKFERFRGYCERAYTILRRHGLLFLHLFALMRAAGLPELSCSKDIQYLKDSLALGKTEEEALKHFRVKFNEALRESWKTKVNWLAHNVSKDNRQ
T12 sequence (P28482 whole entry): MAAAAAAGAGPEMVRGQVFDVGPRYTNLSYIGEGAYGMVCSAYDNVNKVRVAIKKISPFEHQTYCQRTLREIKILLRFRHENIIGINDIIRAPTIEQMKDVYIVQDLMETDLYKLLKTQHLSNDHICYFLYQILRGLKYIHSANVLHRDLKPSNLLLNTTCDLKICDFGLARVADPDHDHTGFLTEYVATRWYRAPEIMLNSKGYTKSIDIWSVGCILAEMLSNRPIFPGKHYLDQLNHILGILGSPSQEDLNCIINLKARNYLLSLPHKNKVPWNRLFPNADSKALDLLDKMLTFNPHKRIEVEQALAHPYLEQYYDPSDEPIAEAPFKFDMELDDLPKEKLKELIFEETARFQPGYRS

CN(C)C(=O)c1cc2cnc(Nc3ccc(-c4csc5c(=O)cc(N6CCOCC6)oc45)cc3)nc2n1C1CCCC1 [SRX3177] showed a remaining binding at 1 µM (kinome (kinase panel) [1]) of 63%, a remaining binding at 1 µM (kinome (kinase panel) [2]) of 51% and a remaining binding at 1 µM (kinome (kinase panel) [3]) of 95%. It also gave a remaining binding at 1 µM (kinome (kinase panel) [4]) of 100%, a remaining binding at 1 µM (kinome (kinase panel) [5]) of 86% and a remaining binding at 1 µM (kinome (kinase panel) [6]) of 100%. For the same compound, the “Percent Control” value (kinome (kinase panel) [7]) was 89 and 56, the remaining binding at 1 µM (kinome (kinase panel) [8]) was 79% and the remaining binding at 1 µM (kinome (kinase panel) [9]) was 47%. It also gave a remaining binding at 1 µM (kinome (kinase panel) [10]; CDK4-cyclinD1) of 0.9%, a remaining binding at 1 µM (kinome (kinase panel) [10]; CDK4-cyclinD3) of 1.1% and a remaining binding at 1 µM (kinome (kinase panel) [10]; CDK4) of 18%. For the same compound, the remaining binding at 1 µM (kinome (kinase panel) [11]) was 72%, the remaining binding at 1 µM (kinome (kinase panel) [12]) was 100% and the remaining binding at 1 µM (kinome (kinase panel) [13]) was 50%. The remaining binding at 1 µM (kinome (kinase panel) [14]) was 34%, the remaining binding at 1 µM (kinome (kinase panel) [15]) was 95% and the remaining binding at 1 µM (kinome (kinase panel) [16]) was 90%. The remaining binding at 1 µM (kinome (kinase panel) [17]) was 100%, the remaining binding at 1 µM (kinome (kinase panel) [18]) was 89% and the remaining binding at 1 µM (kinome (kinase panel) [19]) was 61%. The remaining binding at 1 µM (kinome (kinase panel) [20]) was 57%, the remaining binding at 1 µM (kinome (kinase panel) [21]) was 65% and the remaining binding at 1 µM (kinome (kinase panel) [22]) was 87%. For the same compound, the remaining binding at 1 µM (kinome (kinase panel) [23]) was 73%, the remaining binding at 1 µM (kinome (kinase panel) [24]) was 40% and the remaining binding at 1 µM (kinome (kinase panel) [25]) was 56%. It also gave a remaining binding at 1 µM (kinome (kinase panel) [26]) of 21%, a remaining binding at 1 µM (kinome (kinase panel) [27]) of 91% and a remaining binding at 1 µM (kinome (kinase panel) [28]) of 97%. It also gave a remaining binding at 1 µM (kinome (kinase panel) [29]) of 92%, a remaining binding at 1 µM (kinome (kinase panel) [30]) of 45% and a remaining binding at 1 µM (kinome (kinase panel) [31]) of 100%. For the same compound, the remaining binding at 1 µM (kinome (kinase panel) [32]) was 53%.
